Data published in patent US8754209B2, “Indazole derivatives or pharmaceutically acceptable salts thereof as protein kinase inhibitors for proliferative diseases treatment, and a pharmaceutical composition containing the same as an active ingredient” (Korea Institute of Science and Technology, priority 2009, dated 2014).

Experiments:
[1] = target: B-Raf-V600E (Homo sapiens, UniProt P15056, V600E); experiment: B-Raf kinase enzyme assay (MEK1/Erk2 cascade, MBP phosphorylation, 32P); type: biochemical; conditions: read-out: b-raf-V600Ekinase inhibitory activity (IC50)
Procedure: <1-1> Activation of MAP Kinase 2/Erk2 by B-raf
10 μl magnesium chloride/ATP solution (500 uM ATP, 75 mM magnesium chloride) was seeded in eppendorf tube. 2.5 μl B-Raf-V600E was seed (final conc. 1 ng) in eppendorf tube and treated with 1.6 μl deactivated MEK1 (final conc. 0.4 μg). The mixture was treated with 4 μl deactivated MAP kinase 2/Erk2 (final conc. 1.0 ug). And the mixture was treated with 1 μl example solution (10 mM) dissolved in dimethyl sulfoxide which was orderly diluted. Then, assay dilution buffer I (ADBI I) was added thereto (final vol. 38 μl) to make the final volume of 38 μl, and made it reacted at 30° C. for 30 min. 5 μl of resulting solution was used for the following experiment.
<1-2> Phosphorylation of Myelin basic protein (MBP)
5 μl of the above resulting solution was treated with 10 μl assay dilution buffer, and then treated with 10 μl Myelin basic protein (MBP, 2 mg/Ml). The mixture solution was treated with 10 μl of diluted (1/10) [γ^32P] ATP (100 uCi/vial) which is diluted at 30° C. for 10 min. 25 μl of the mixture solution was spotted onto a P81 paper, and the paper was washed four times with 0.75% phosphoric acid for 10 min and once with acetone for 5 min in scintillation vial. After 5 Ml of scintillation cocktail solution was added in the scintillation vial, signals were analyzed by scintillation counter.

[2] = test system: A375P cells; experiment: Anti-proliferative activity on A375P cell line (MTT assay); type: cell-based; conditions: A375P human melanoma cell line
Procedure: A375P cells were purchased from American Type Culture Collection (ATCC, Rockville, Md., US) and maintained in DMEM medium (Welgene, Daegu, Korea) supplemented with 10% FBS (Welgene) and 1% penicillin/streptomycin (Welgene) in a humidified atmosphere with 5% CO2 at 37° C. The A375P cells were taken from culture substrate with 0.05% trypsin-0.02% EDTA and plated at a density of 5×10^3 cells/well in 96 well plates and then incubated at 37° C. for 24 h in a humidified atmosphere with 5% CO2 prior to treatment of various concentration (three fold serial dilution, 12 points) of test compounds. The A357P cell viability was assessed by the conventional 3-(4,5-dimethylthiazol-2-yl)-2,5-diphenyltetrazolium bromide (MTT) reduction assay. MTT assays were carried out with CellTiter 96 (Promega) according to the manufacturer's instructions.
After 1 day, 0.5 μl the representative compounds of the examples were added thereto. The representative compounds of the examples were prepared by three fold serial dilution of 10 mM stock solution in DMSO, 12 point (final conc. DMSO 0.5%). Then, 15 μl dye was added in each well. After 2 h, 100 μl stop solution was added each well. After 24 h, absorbance was measured. The absorbance at 590 nm was recorded using EnVision2103 (PerkinElmer; Boston, Mass., US). The IC50 value was calculated using GraphPad Prism 4.0 software.

[3] = cited from earlier work
[4] = test system: T3151-Bcr-Abl; conditions: cited from earlier work
[5] = test system: A375 melanoma cell line; conditions: raf-V660E overexpression cell strain; read-out: anti-proliferative activity IC50, A375 melanoma cell line; cited from earlier work

B-Raf-V600E, sequence (P15056 whole entry V600E): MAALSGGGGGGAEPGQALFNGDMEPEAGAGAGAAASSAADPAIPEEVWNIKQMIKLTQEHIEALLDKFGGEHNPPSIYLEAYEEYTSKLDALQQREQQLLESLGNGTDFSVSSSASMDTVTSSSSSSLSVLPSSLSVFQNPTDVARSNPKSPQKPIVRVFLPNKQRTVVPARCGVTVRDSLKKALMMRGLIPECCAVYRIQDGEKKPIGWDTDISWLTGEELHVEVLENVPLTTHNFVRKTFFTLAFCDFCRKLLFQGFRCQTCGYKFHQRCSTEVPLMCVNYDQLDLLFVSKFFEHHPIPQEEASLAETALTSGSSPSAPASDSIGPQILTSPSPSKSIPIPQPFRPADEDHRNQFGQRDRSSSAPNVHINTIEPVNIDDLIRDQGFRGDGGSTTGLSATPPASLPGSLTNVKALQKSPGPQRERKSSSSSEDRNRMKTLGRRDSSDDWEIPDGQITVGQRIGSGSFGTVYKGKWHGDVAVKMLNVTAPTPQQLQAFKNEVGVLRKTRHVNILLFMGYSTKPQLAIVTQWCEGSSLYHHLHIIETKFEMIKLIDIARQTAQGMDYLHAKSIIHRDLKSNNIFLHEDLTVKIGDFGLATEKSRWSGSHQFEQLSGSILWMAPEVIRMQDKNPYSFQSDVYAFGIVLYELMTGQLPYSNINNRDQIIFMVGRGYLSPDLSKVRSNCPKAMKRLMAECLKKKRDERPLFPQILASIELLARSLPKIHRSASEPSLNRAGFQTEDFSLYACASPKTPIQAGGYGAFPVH

**Q.** What does the source list for `CCOC(=O)c1n[nH]c2cc(-c3ccc(NC(=O)Nc4ccc(Cl)c(C(F)(F)F)c4)cc3)ccc12` [Example 21, ethyl 6-(4-(3-(4-chloro-3-(trifluoromethyl)phenyl)ureido)phenyl)-1H-indazole-3-carboxylate]?
**A.** IC50 [1]: < 10 µM; GI50 [2]: < 10 µM

**Q.** For `CCOC(=O)c1n[nH]c2cc(-c3ccc(NC(=O)c4cnn(-c5ccc(OC)cc5)c4C(F)(F)F)cc3)ccc12` [Example 8, ethyl 6-(4-(1-(4-methoxyphenyl)-5-(trifluoromethyl)-1H-pyrazole-4-carboxamido)phenyl)-1H-indazole-3-carboxylate], which IC50 [1] is on record?
**A.** The IC50 was less than 10 µM.

**Q.** And the GI50 [2]?
**A.** Its GI50 is less than 10 µM.

**Q.** With `CCOC(=O)c1n[nH]c2cc(-c3cccc(NC(=O)Nc4cccc(Cl)c4Cl)c3)ccc12` [Example 54, ethyl 6-(3-(3-(2,3-dichlorophenyl)ureido)phenyl)-1H-indazole-3-carboxylate] as the molecule, how does the IC50 [1] read?
**A.** The IC50 was less than 10 µM.

**Q.** And the GI50 [2]?
**A.** Its GI50 is less than 10 µM.

**Q.** For `O=C(Nc1cccc(-c2ccc3c(C(=O)NCCN4CCOCC4)n[nH]c3c2)c1)c1cccc(C(F)(F)F)c1` [Example 50, N-(2-morpholinoethyl)-6-(3-(3-(trifluoromethyl)benzamido)phenyl)-1H-indazole-3-carboxamide], which IC50 [1] is on record?
**A.** The IC50 was less than 10 µM.

**Q.** With `O=C(Nc1cccc(-c2ccc3c(C(=O)NCCN4CCOCC4)n[nH]c3c2)c1)Nc1ccc(Cl)c(C(F)(F)F)c1` [Example 58, 6-(3-(3-(4-chloro-3-(trifluoromethyl)phenyl)ureido)phenyl)-N-(2-morpholinoethyl)-1H-indazole-3-carboxamide] as the molecule, how does the IC50 [1] read?
**A.** The IC50 was less than 10 µM.

**Q.** And the GI50 [2]?
**A.** Its GI50 is less than 10 µM.

**Q.** With `CCOC(=O)c1n[nH]c2cc(-c3cccc(NC(=O)Cc4ccc(OC)c(OC)c4)c3)ccc12` [Example 48, ethyl 6-(3-(2-(3,4-dimethoxyphenyl)acetamido)phenyl)-1H-indazole-3-carboxylate] as the molecule, how does the IC50 [1] read?
**A.** The IC50 was less than 10 µM.

**Q.** And the GI50 [2]?
**A.** Its GI50 is less than 10 µM.

**Q.** What does the source list for `O=C(Nc1cccc(-c2ccc3c(CO)n[nH]c3c2)c1)Nc1ccc(Cl)c(C(F)(F)F)c1` [Example 79, 1-(4-chloro-3-(trifluoromethyl)phenyl)-3-(3-(3-(hydroxymethyl)-1H-indazol-6-yl)phenyl)urea]?
**A.** IC50 [1]: < 10 µM; GI50 [2]: < 10 µM

**Q.** With `CCOC(=O)c1n[nH]c2cc(-c3ccc(NC(=O)c4csc(-c5ccncc5)n4)cc3)ccc12` [Example 17, ethyl 6-(4-(2-(pyridin-4-yl)thiazole-4-carboxamido)phenyl)-1H-indazole-3-carboxylate] as the molecule, how does the IC50 [1] read?
**A.** The IC50 was less than 10 µM.

**Q.** With `CNC(=O)c1n[nH]c2cc(-c3ccc(NC(=O)c4cccc(C(F)(F)F)c4)cc3)ccc12` [Example 24, N-methyl-6-(4-(3-(trifluoromethyl)benzamido)phenyl)-1H-indazole-3-carboxamide] as the molecule, how does the IC50 [1] read?
**A.** Its IC50 is less than 10 µM.

**Q.** What about the GI50 [2] of the same molecule?
**A.** Its GI50 is less than 10 µM.

**Q.** For `CNC(=O)c1cc(Oc2ccc(NC(=O)Nc3ccc(Cl)c(C(F)(F)F)c3)cc2)ccn1` [Sorafenib], which “skin toxicity side effect, grade” value ([3]; 600 mg twice a day) is on record?
**A.** The value was 3.

**Q.** What about the “MTD (maximum tolerated dose)” value ([3]; twice a day, phase II clinical investigation) of the same molecule?
**A.** The value was 400 mg.

**Q.** Which “activity on T3151-Bcr-Abl” value [4] does the source give for `Cc1cn(-c2cc(NC(=O)c3ccc(C)c(Nc4nccc(-c5cccnc5)n4)c3)cc(C(F)(F)F)c2)cn1` [Nilotinib] here?
**A.** The value was “inactive”.

**Q.** For `O=C(Nc1ccc(-c2ccc3c(C(=O)NCCN4CCOCC4)n[nH]c3c2)cc1)c1ccc(Br)s1` [Example 31, 6-(4-(5-bromothiophene-2-carboxamido)phenyl)-N-(2-morpholinoethyl)-1H-indazole-3-carboxamide], which GI50 [2] is on record?
**A.** The GI50 was less than 10 µM.

**Q.** Which GI50 [2] does the source give for `COC(=O)c1n[nH]c2cc(-c3cccc(NC(=O)c4ccc(OC5CCN(C)CC5)c(C(F)(F)F)c4)c3)ccc12` [Example 78, methyl 6-(3-(4-(1-methylpiperidin-4-yloxy)-3-(trifluoromethyl)benzamido)phenyl)-1H-indazole-3-carboxylate] here?
**A.** The GI50 was less than 10 µM.

**Q.** With `CNC(=O)c1n[nH]c2cc(-c3ccc(NC(=O)c4cc(-n5cnc(C)c5)cc(C(F)(F)F)c4)cc3)ccc12` [Example 39, N-methyl-6-(4-(3-(4-methyl-1H-imidazol-1-yl)-5-(trifluoromethyl)benzamido)phenyl)-1H-indazole-3-carboxamide] as the molecule, how does the GI50 [2] read?
**A.** Its GI50 is less than 10 µM.

**Q.** Which GI50 [2] does the source give for `CCOC(=O)c1n[nH]c2cc(-c3cccc(NS(=O)(=O)c4cccc(C(F)(F)F)c4)c3)ccc12` [Example 68, ethyl 6-(3-(3-(trifluoromethyl)phenylsulfonamido)phenyl)-1H-indazole-3-carboxylate] here?
**A.** The GI50 was less than 10 µM.

**Q.** Which GI50 [2] does the source give for `CCOC(=O)c1n[nH]c2cc(-c3cccc(NC(=O)c4cc5ccccc5s4)c3)ccc12` [Example 47, ethyl 6-(3-(benzo[b]thiophene-2-carboxamido)phenyl)-1H-indazole-3-carboxylate] here?
**A.** The GI50 was less than 10 µM.

**Q.** With `O=C(Nc1ccc(-c2ccc3c(C(=O)NCCN4CCOCC4)n[nH]c3c2)cc1)c1cccc(C(F)(F)F)c1` [Example 30, N-(2-morpholinoethyl)-6-(4-(3-(trifluoromethyl)benzamido)phenyl)-1H-indazole-3-carboxamide] as the molecule, how does the GI50 [2] read?
**A.** Its GI50 is less than 10 µM.

**Q.** For `Cc1cc(C(=O)Nc2ccc(-c3ccc4c(C(=O)NCCN5CCOCC5)n[nH]c4c3)cc2)c(C)o1` [Example 33, 6-(4-(2,5-dimethylfuran-3-carboxamido)phenyl)-N-(2-morpholinoethyl)-1H-indazole-3-carboxamide], which GI50 [2] is on record?
**A.** Its GI50 is less than 10 µM.

**Q.** Which GI50 [2] does the source give for `Cc1ccc(NC(=O)Nc2ccc(Cl)c(C(F)(F)F)c2)cc1-c1ccc2c(C(=O)NCCN(C)C)n[nH]c2c1` [Example 65, 6-(5-(3-(4-chloro-3-(trifluoromethyl)phenyl)ureido)-2-methylphenyl)-N-(2-(dimethylamino)ethyl)-1H-indazole-3-carboxamide] here?
**A.** Its GI50 is less than 10 µM.

**Q.** Which GI50 [2] does the source give for `CCOC(=O)c1n[nH]c2cc(-c3cccc(NC(=O)c4ccc(Br)s4)c3)ccc12` [Example 49, ethyl 6-(3-(5-bromothiophene-2-carboxamido)phenyl)-1H-indazole-3-carboxylate] here?
**A.** The GI50 was less than 10 µM.

**Q.** With `CCCS(=O)(=O)Nc1ccc(F)c(C(=O)c2c[nH]c3ncc(Cl)cc23)c1F` [PLX-4720] as the molecule, how does the IC50 [5] read?
**A.** The IC50 was 0.5 µM.

**Q.** Which GI50 [2] does the source give for `CNC(=O)c1n[nH]c2cc(-c3ccc(NC(=O)c4ccc(Br)s4)cc3)ccc12` [Example 26, 6-(4-(5-bromothiophene-2-carboxamido)phenyl)-N-methyl-1H-indazole-3-carboxamide] here?
**A.** The GI50 was less than 10 µM.

**Q.** With `CCOC(=O)c1n[nH]c2cc(-c3cc(NC(=O)Nc4ccc(Cl)c(C(F)(F)F)c4)ccc3C)ccc12` [Example 57, ethyl 6-(5-(3-(4-chloro-3-(trifluoromethyl)phenyl)ureido)-2-methylphenyl)-1H-indazole-3-carboxylate] as the molecule, how does the IC50 [1] read?
**A.** Its IC50 is less than 10 µM.

**Q.** And the GI50 [2]?
**A.** The GI50 was less than 10 µM.

**Q.** Which GI50 [2] does the source give for `COC(=O)c1n[nH]c2cc(-c3cccc(NC(=O)c4cc(N5CCOCC5)cc(C(F)(F)F)c4)c3)ccc12` [Example 52, methyl 6-(3-(3-morpholino-5-(trifluoromethyl)benzamido)phenyl)-1H-indazole-3-carboxylate] here?
**A.** The GI50 was less than 10 µM.

**Q.** For `CCOC(=O)c1n[nH]c2cc(-c3ccc(NC(=O)c4ccncc4Cl)cc3)ccc12` [Example 13, ethyl 6-(4-(3-chloroisonicotinamido)phenyl)-1H-indazole-3-carboxylate], which GI50 [2] is on record?
**A.** The GI50 was less than 10 µM.

**Q.** With `CCOC(=O)c1n[nH]c2cc(-c3cccc(NC(=O)Nc4ccc(Cl)c(Cl)c4)c3)ccc12` [Example 55, ethyl 6-(3-(3-(3,4-dichlorophenyl)ureido)phenyl)-1H-indazole-3-carboxylate] as the molecule, how does the GI50 [2] read?
**A.** The GI50 was less than 10 µM.

**Q.** With `O=C(Nc1ccc(-c2ccc3c(C(=O)NCCN4CCOCC4)n[nH]c3c2)cc1)Nc1ccc(Cl)c(Cl)c1` [Example 36, 6-(4-(3-(3,4-dichlorophenyl)ureido)phenyl)-N-(2-morpholinoethyl)-1H-indazole-3-carboxamide] as the molecule, how does the GI50 [2] read?
**A.** Its GI50 is less than 10 µM.

**Q.** For `COc1ccc(-n2ncc(C(=O)Nc3ccc(-c4ccc5c(C(=O)NCCN6CCOCC6)n[nH]c5c4)cc3)c2C(F)(F)F)cc1` [Example 34, 6-(4-(1-(4-methoxyphenyl)-5-(trifluoromethyl)-1H-pyrazole-4-carboxamido)phenyl)-N-(2-morpholinoethyl)-1H-indazole-3-carboxamide], which GI50 [2] is on record?
**A.** The GI50 was less than 10 µM.
